Results published in US7122662B2, “Tricyclic compound having spiro union” (Mochida Pharmaceutical Co., Ltd., priority 1999, dated 2006).

Tests used:
human FXa = molecular target: T1, human FXa (Homo sapiens, UniProt P00742); assay: Measurement of human FXa inhibitory action; assay type: biochemical; details: bioassay procedure of Experimental Example 1, a); reference compounds
T1 construct: purchased Enzyme Research Laboratories, Inc
Method: In vitro FXa inhibitory activity is measured in accordance with the method of Kettner et al. (Journal of Biological Chemistry, vol. 265, pages 18289 to 18297, 1990). To be more specific, human FXa (product of Enzyme Research Laboratories, Inc., 0.019 U/ml) is mixed with a test compound diluted with dimethylsulfoxide (DMSO) at various concentrations and a synthetic substrate S-2222 (Chromogenix AB, 0.4 mM). The mixtures are incubated at 37° C. in Tris-hydrochloric acid buffer (pH 7.5) while the absorbance at 405 nm is measured continuously. To calculate the FXa inhibitory activity of the test compound, the initial reaction velocity is compared with the value for a control containing no test compound. It should be noted that the FXa inhibitory activity of the test compound is generally indicated as IC50.

human plasma = assay: Measurement of intrinsic coagulation time (APTT) in vitro; assay type: biochemical
Method: Activated partial thromboplastin time (APTT) is measured in the presence of the test compounds diluted at various concentrations. A test compound diluted with DMSO at various concentrations is mixed with human plasma and APTT reagent. The mixture is incubated at 37° C. for 2 minutes; calcium chloride (25 mM) is added to the mixture; and the coagulation time is thereafter measured. It should be noted that the anticoagulant activity of the test compound is described in terms of the concentration required to double the coagulation time for the case where no test compound is added.

T1 sequence (P00742 235-488 limits assumed): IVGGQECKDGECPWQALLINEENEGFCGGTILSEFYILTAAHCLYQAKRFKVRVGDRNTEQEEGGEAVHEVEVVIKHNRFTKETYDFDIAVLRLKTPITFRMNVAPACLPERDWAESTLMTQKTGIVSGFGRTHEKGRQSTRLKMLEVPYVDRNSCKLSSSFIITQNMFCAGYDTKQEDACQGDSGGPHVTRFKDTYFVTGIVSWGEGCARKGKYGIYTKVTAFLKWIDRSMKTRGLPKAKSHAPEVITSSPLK
T1 sequence (P00742 41-179 partner limits assumed): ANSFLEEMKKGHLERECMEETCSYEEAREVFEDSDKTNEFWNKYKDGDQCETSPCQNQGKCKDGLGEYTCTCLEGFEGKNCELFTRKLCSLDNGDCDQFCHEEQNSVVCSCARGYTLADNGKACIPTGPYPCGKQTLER

IC50 (human FXa) | SMILES | Concentration required to double coagulation time (human plasma)
31 µM | O=C(C(CNS(=O)(=O)c1ccc2cc(Cl)ccc2c1)NCC1CCN(c2ccncc2)CC1)N1CCS(=O)(=O)CC1 (stereo not drawn) [Compound B, 4-[3-(6-chloronaphthalen-2-ylsulfoneamide)-2-[l-(4-pyridyl)piperidin-4-ylmethyl]aminopropionyl]-1,1-dioxothiomorpholine] | –
– | O=C1CN(S(=O)(=O)c2cc3ccc(Cl)cc3s2)CC2NC3(CCN(c4ccncc4)CC3)CN12 (stereo not drawn) [Example 275, 1,4,7-triaza-4-(6-chlorobenzo[b]thiophen-2-ylsulfonyl)-1′-(4-pyridyl)spiro[bicyclo[4.3.0]nonane-8,4′-piperidin]-2-one] | 0.17 µM
– | COCC12CN(S(=O)(=O)c3cc4cc(Cl)ccc4o3)CC(=O)N1CC1(CCN(c3ccncc3)CC1)N2C (stereo not drawn) [Example 533, 1,4,7-triaza-4-(5-chlorobenzo[b]furan-2-ylsulfonyl)-6-(methoxymethyl)-7-methyl-1′-(4-pyridyl)spiro[bicyclo[4.3.0]nonane-8,4′-piperidin]-2-one] | 0.35 µM
– | NCC12CN(S(=O)(=O)c3ccc4cc(Cl)ccc4c3)CC(=O)N1CC1(CCN(c3ccncc3)CC1)O2 (stereo not drawn) [Example 58, 6-(aminomethyl)-1,4-diaza-4-(6-chloronaphthalen-2-ylsulfonyl)-7-oxa-1′-(4-pyridyl)spiro[bicyclo[4.3.0]nonane-8,4′-piperidin]-2-one] | 0.18 µM
– | COCC12CN(S(=O)(=O)c3ccc4ccccc4c3)CC(=O)N1CC1(CCN(c3ccncc3)CC1)O2 (stereo not drawn) [Example 6, 1,4-diaza-6-(methoxymethyl)-4-(2-naphthalenesulfonyl)-7-oxa-1′-(4-pyridyl)spiro[bicyclo[4.3.0]nonane-8,4′-piperidin]-2-one] | 0.99 µM
– | COCC12CN(S(=O)(=O)c3ccc4cc(Cl)ccc4c3)CC(=O)N1CC1(CCN(c3cc[n+](C)cc3)CC1)O2.Cc1ccc(S(=O)(=O)[O-])cc1 (stereo not drawn) [Example 23, 4-[1,4-diaza-4-(6-chloronaphthalen-2-ylsulfonyl)-6-(methoxymethyl)-7-oxa-2-oxospiro[bicyclo[4.3.0]nonane-8,4′-piperidin-1′-yl]]-1-methylpyridinium p-toluenesulfonate] | 0.62 µM
– | COCC12CN(S(=O)(=O)c3cc4ccc(Cl)cc4s3)CC(=O)N1CC1(CCN(c3ccncc3)CC1)N2 (stereo not drawn) [Example 461, 1,4,7-triaza-4-(6-chlorobenzo[b]thiophen-2-ylsulfonyl)-6-(methoxymethyl)-1′-(4-pyridyl)spiro[bicyclo[4.3.0]nonane-8,4′-piperidin]-2-one] | 0.16 µM
– | COCC12CN(S(=O)(=O)C3=Cc4ccc(Cl)cc4OC3)CC(=O)N1CC1(CCN(c3ccncc3)CC1)O2 (stereo not drawn) [Example 388, 1,4-diaza-4-(7-chloro-2H-benzopyran-3-sulfonyl)-6-(methoxymethyl)-7-oxa-1′-(4-pyridyl)spiro[bicyclo[4.3.0]nonane-8,4′-piperidin]-2-one] | 0.22 µM
– | CC(C)OC(=O)C12CN(S(=O)(=O)c3ccc4cc(Cl)ccc4c3)CC(=O)N1CC1(CCN(c3ccncc3)CC1)O2 (stereo not drawn) [Example 29, 1,4-diaza-4-(6-chloronaphthalen-2-ylsulfonyl)-6-(isopropoxycarbonyl)-7-oxa-1′-(4-pyridyl)spiro[bicyclo[4.3.0]nonane-8,4′-piperidin]-2-one] | 0.90 µM
– | COCCOC(=O)C12CN(S(=O)(=O)c3ccc4cc(Cl)ccc4c3)CC(=O)N1CC1(CCN(c3ccncc3)CC1)O2 (single isomer, unassigned; (-)) [Example 42, (−)-1,4-diaza-4-(6-chloronaphthalen-2-ylsulfonyl)-6-(2-methoxyethoxycarbonyl)-7-oxa-1′-(4-pyridyl)spiro[bicyclo[4.3.0]nonane-8,4′-piperidin]-2-one] | 0.20 µM
– | O=C1CN(S(=O)(=O)c2ccc3cc(Cl)ccc3c2)CC2OC3(CCN(c4ccncc4)CC3)CN12 (stereo not drawn) [Example 9, 1,4-diaza-4-(6-chloronaphthalen-2-ylsulfonyl)-7-oxa-1′-(4-pyridyl)spiro[bicyclo[4.3.0]nonane-8,4′-piperidin]-2-one] | 0.29 µM
– | CC12CN(S(=O)(=O)c3ccc4cc(Cl)ccc4c3)CC(=O)N1CC1(CCN(c3ccncc3)CC1)O2 (stereo not drawn) [Example 69, 1,4-diaza-4-(6-chloronaphthalen-2-ylsulfonyl)-6-methyl-7-oxa-1′-(4-pyridyl)spiro[bicyclo[4.3.0]nonane-8,4′-piperidin]-2-one] | 0.36 µM
– | O=C1CN(S(=O)(=O)C=Cc2ccc(Cl)s2)CC2OC3(CCN(c4ccncc4)CC3)CN12 (stereo not drawn) [Example 600, 1,4-diaza-4-[2-(5-chlorothiophen-2-yl)ethenesulfonyl]-7-oxa-1′-(4-pyridyl)spiro[bicyclo[4.3.0]nonane-8,4′-piperidin]-2-one] | 0.22 µM
28 µM | CCOC(=O)[C@H]1CN(S(=O)(=O)c2ccc3cc(Cl)ccc3c2)CC(=O)N1CC1CCN(c2ccncc2)CC1 [Compound C, (R)-4-(6-chloronaphthalen-2-ylsulfonyl)-6-ethoxycarbonyl-l-[1-(4-pyridyl)piperidin-4-ylmethyl]piperazin-2-one] | –
– | O=C(O)COCC12CN(S(=O)(=O)c3ccc4cc(Cl)ccc4c3)CC(=O)N1CC1(CCN(c3ccncc3)CC1)O2 (stereo not drawn) [Example 5, 1,4-diaza-4-(6-chloronaphthalen-2-ylsulfonyl)-6-(carboxymethoxymethyl)-7-oxa-1′-(4-pyridyl)spiro[bicyclo[4.3.0]nonane-8,4′-piperidin]-2-one] | 0.43 µM
– | COCC12CN(S(=O)(=O)C=Cc3ccc(Cl)s3)CC(=O)N1CC1(CCN(c3ccncc3)CC1)N2C (stereo not drawn) [Example 740, 1,4,7-triaza-4-[2-(5-chlorothiophen-2-yl)ethenesulfonyl]-6-(methoxymethyl)-7-methyl-1′-(4-pyridyl)spiro[bicyclo[4.3.0]nonane-8,4′-piperidin]-2-one] | 0.18 µM
– | COCC12CN(S(=O)(=O)c3cc4cc(Cl)ccc4o3)CC(=O)N1CC1(CCN(c3ccncc3)CC1)N2 (stereo not drawn) [Example 471, 1,4,7-triaza-4-(5-chlorobenzo[b]furan-2-ylsulfonyl)-6-(methoxymethyl)-1′-(4-pyridyl)spiro[bicyclo[4.3.0]nonane-8,4′-piperidin]-2-one] | 0.27 µM
– | COCC12CN(S(=O)(=O)c3cc4ccc(Cl)cc4s3)CC(=O)N1CC1(CCN(c3ccncc3)CC1)O2 (stereo not drawn) [Example 399, 1,4-diaza-4-(6-chlorobenzo[b]thiophen-2-ylsulfonyl)-6-(methoxymethyl)-7-oxa-1′-(4-pyridyl)spiro[bicyclo[4.3.0]nonane-8,4′-piperidin]-2-one] | 0.18 µM
